According to ChEMBL document CHEMBL1201862, “PubChem BioAssay data set” (2004):
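96-well plates; 48 h exposure; 5 concentrations. Endpoints by linear interpolation between flanking doses. Not reached: highest tested concentration assigned. GI50: concentration for 50% inhibition of growth.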 Activity calls are given as the source filed them. No stated cut-off is given here; in the data, active = GI50 up to about 1.1 µM and inactive = higher.

Key:
Assay in all cases: DTP human tumour cell line panel, 48 h
[1] = tested on: A498
[2] = tested on: CAKI-1
[3] = tested on: DU-145
[4] = tested on: HCT-15
[5] = tested on: HOP-62
[6] = tested on: MDA-N
[7] = tested on: OVCAR-3
[8] = tested on: OVCAR-5
[9] = tested on: PC-3
[10] = tested on: SK-MEL-28
[11] = tested on: SNB-75
[12] = tested on: SW-620
[13] = tested on: A549
[14] = tested on: CCRF-CEM
[15] = tested on: HOP-92
[16] = tested on: OVCAR-4
[17] = tested on: SNB-19
[18] = tested on: SR
[19] = tested on: BT-549

| Structure (SMILES) | GI50 [1] | GI50 [2] | GI50 [3] | GI50 [4] [µM] | GI50 [5] | GI50 [6] | GI50 [7] | GI50 [8] | GI50 [9] | GI50 [10] | GI50 [11] | GI50 [12] | GI50 [13] | GI50 [14] | GI50 [15] | GI50 [16] | GI50 [17] | GI50 [18] | GI50 [19] |
| --- | --- | --- | --- | --- | --- | --- | --- | --- | --- | --- | --- | --- | --- | --- | --- | --- | --- | --- | --- |
| CC(=C\c1ccccc1)/C=C(\C#N)C(N)=O | > 10 µM (inactive) | > 10 µM (inactive) | > 10 µM (inactive) | > 10 | > 10 µM (inactive) | > 10 µM (inactive) | > 10 µM (inactive) | > 10 µM (inactive) | > 10 µM (inactive) | > 10 µM (inactive) | > 10 µM (inactive) | > 10 µM (inactive) |  |  |  |  |  |  |  |
| CCn1c(=O)c2nc(SC)sc2n(-c2ccccc2)c1=S |  |  | > 100 µM (inactive) | 79.4 | > 100 µM (inactive) | 47.2 µM (inactive) | 68.5 µM (inactive) | > 100 µM (inactive) | 30.7 µM (inactive) | > 100 µM (inactive) | 91.2 µM (inactive) | 93.1 µM (inactive) | 98.9 µM (inactive) | 19.6 µM (inactive) | 55.5 µM (inactive) | > 100 µM (inactive) | 89.1 µM (inactive) | > 100 µM (inactive) |  |
| COC(=O)C1CCC(=O)N1CN(C(C)=O)c1ccccc1Cl (configuration not stated) | > 100 µM (inactive) | > 100 µM (inactive) | > 100 µM (inactive) | > 100 | > 100 µM (inactive) | > 100 µM (inactive) | > 100 µM (inactive) | > 100 µM (inactive) | > 100 µM (inactive) | > 100 µM (inactive) | > 100 µM (inactive) | > 100 µM (inactive) | > 100 µM (inactive) |  | > 100 µM (inactive) | > 100 µM (inactive) | > 100 µM (inactive) | > 100 µM (inactive) |  |
| [N-]=[N+]=Nc1c([N+](=O)[O-])c(=O)n(-c2ccccc2)c2ccccc12 | 73.5 µM (inactive) | 21.5 µM (inactive) | 35.2 µM (inactive) | 21.9 | 43.7 µM (inactive) | 27.2 µM (inactive) | 4.5 µM (inactive) | > 100 µM (inactive) | 16.6 µM (inactive) | 26.5 µM (inactive) | 20.1 µM (inactive) | 29.2 µM (inactive) | 38.7 µM (inactive) | 29.4 µM (inactive) | 26.4 µM (inactive) | 18.3 µM (inactive) | 32.3 µM (inactive) | 25.2 µM (inactive) |  |
| O=C1C(/C=C/c2ccc(Cl)cc2)=NNC2N1N=C1NC(=O)C3(NN12)c1ccccc1-c1ccccc13 (configuration not stated) | > 100 µM (inactive) | > 100 µM (inactive) | > 100 µM (inactive) | 69.5 | > 100 µM (inactive) |  | > 100 µM (inactive) | > 100 µM (inactive) | > 100 µM (inactive) | > 100 µM (inactive) | > 100 µM (inactive) | > 100 µM (inactive) | > 100 µM (inactive) | 65.6 µM (inactive) | 41.9 µM (inactive) | > 100 µM (inactive) | > 100 µM (inactive) | < 0.01 µM (active) | > 100 µM (inactive) |
| C=CCNC(=S)NC=C(C(N)=O)C(N)=O | < 0.01 µM (active) | > 100 µM (inactive) | > 100 µM (inactive) | > 100 | > 100 µM (inactive) | > 100 µM (inactive) | 11.1 µM (inactive) | > 100 µM (inactive) | > 100 µM (inactive) | > 100 µM (inactive) | > 100 µM (inactive) | > 100 µM (inactive) | > 100 µM (inactive) | > 100 µM (inactive) |  | > 100 µM (inactive) | > 100 µM (inactive) | > 100 µM (inactive) |  |
| C=CCOC(=O)CC[C@H](NC(=O)[C@@H](CCC(F)(F)F)Cc1ccc(O)cc1)C(=O)OCC=C |  | > 100 µM (inactive) |  | > 100 | > 100 µM (inactive) | 32.7 µM (inactive) |  | > 100 µM (inactive) |  | 23.7 µM (inactive) | 28.8 µM (inactive) | > 100 µM (inactive) | > 100 µM (inactive) |  | 67.1 µM (inactive) | 65.2 µM (inactive) | > 100 µM (inactive) | 32.5 µM (inactive) | > 100 µM (inactive) |
| O=C(CN1CCOCC1)c1ccc2c(c1)oc(=O)n2CCN1CCOCC1 | > 100 µM (inactive) | > 100 µM (inactive) | > 100 µM (inactive) |  | > 100 µM (inactive) | > 100 µM (inactive) | > 100 µM (inactive) | > 100 µM (inactive) | > 100 µM (inactive) | > 100 µM (inactive) | > 100 µM (inactive) | > 100 µM (inactive) |  | > 100 µM (inactive) |  |  | > 100 µM (inactive) | > 100 µM (inactive) |  |
| Cc1cc(=O)oc2c3c(ccc12)OC(c1ccc(Br)cc1)CC3=O (configuration not stated) |  | 12.4 µM (inactive) |  | 7.48 | 7.69 µM (inactive) | 8.13 µM (inactive) | 10.8 µM (inactive) | 16.3 µM (inactive) | 6.25 µM (inactive) | 8.67 µM (inactive) | 3.02 µM (inactive) | 4.2 µM (inactive) | 16.7 µM (inactive) | 2.21 µM (inactive) |  | 26.5 µM (inactive) | 5.31 µM (inactive) | 3.23 µM (inactive) | 3.03 µM (inactive) |
